Source: PubChem BioAssay (NCI)
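Cultured in 96-well plates, cells were exposed to test compound for 48 hours across five concentrations. At the TGI there is no net growth.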

Assays:
Experiment in all cases: inhibition of tumour cell growth, NCI panel, 48 h
786-0 renal = system: 786-0 renal
SK-MEL-5 melanoma = system: SK-MEL-5 melanoma
NCI-H23 lung = system: NCI-H23 lung
A498 renal = system: A498 renal
K-562 leukemia = system: K-562 leukemia
SK-MEL-28 melanoma = system: SK-MEL-28 melanoma
OVCAR-4 ovarian = system: OVCAR-4 ovarian
RXF 393 renal = system: RXF 393 renal
MDA-MB-231 breast = system: MDA-MB-231 breast
ACHN renal = system: ACHN renal
SK-MEL-2 melanoma = system: SK-MEL-2 melanoma
HOP-92 NSCLC = system: HOP-92 NSCLC
COLO 205 colon = system: COLO 205 colon
NCI-H460 lung = system: NCI-H460 lung
NCI-H522 lung = system: NCI-H522 lung
SW-620 colon = system: SW-620 colon
UO-31 renal = system: UO-31 renal
SN12C renal = system: SN12C renal
HT29 colon = system: HT29 colon
IGROV1 ovarian = system: IGROV1 ovarian
A549 NSCLC = system: A549 NSCLC
BT-549 breast = system: BT-549 breast
M14 melanoma = system: M14 melanoma
SNB-75 CNS = system: SNB-75 CNS
SF-539 CNS = system: SF-539 CNS
CCRF-CEM leukemia = system: CCRF-CEM leukemia
SR leukemia = system: SR leukemia
CAKI-1 renal = system: CAKI-1 renal
EKVX NSCLC = system: EKVX NSCLC
KM12 colon = system: KM12 colon
RPMI-8226 leukemia = system: RPMI-8226 leukemia
MDA-MB-435 = system: MDA-MB-435
HCT-15 colon = system: HCT-15 colon
SK-OV-3 ovarian = system: SK-OV-3 ovarian
DU-145 prostate = system: DU-145 prostate
TK-10 renal = system: TK-10 renal
OVCAR-5 ovarian = system: OVCAR-5 ovarian
OVCAR-8 ovarian = system: OVCAR-8 ovarian
MOLT-4 leukemia = system: MOLT-4 leukemia
MCF7 breast = system: MCF7 breast
UACC-62 melanoma = system: UACC-62 melanoma
OVCAR-3 ovarian = system: OVCAR-3 ovarian
HCT-116 colon = system: HCT-116 colon
HCC-2998 colon = system: HCC-2998 colon
HOP-62 NSCLC = system: HOP-62 NSCLC
LOX IMVI melanoma = system: LOX IMVI melanoma
SF-295 CNS = system: SF-295 CNS
T-47D breast = system: T-47D breast
NCI-H226 lung = system: NCI-H226 lung
SF-268 CNS = system: SF-268 CNS
PC-3 prostate = system: PC-3 prostate
UACC-257 melanoma = system: UACC-257 melanoma
NCI/ADR-RES ovarian = system: NCI/ADR-RES ovarian
HL-60(TB) leukemia = system: HL-60(TB) leukemia
U251 CNS = system: U251 CNS
SNB-19 CNS = system: SNB-19 CNS
HS 578T breast = system: HS 578T breast
MALME-3M melanoma = system: MALME-3M melanoma

SMILES: Cc1cc(Cc2cc(C)c(NC(=O)C(=O)C3CCC4=C(SC5C=CC=CC5N4)C3=O)c(C(C)C)c2)cc(C(C)C)c1NC(=O)C(=O)C1CCC2=C(SC3C=CC=CC3N2)C1=O (stereo not drawn)
- TGI (786-0 renal): > 100 µM
- TGI (SK-MEL-5 melanoma): > 100 µM
- TGI (NCI-H23 lung): > 100 µM
- TGI (A498 renal): > 100 µM
- TGI (K-562 leukemia): > 100 µM
- TGI (SK-MEL-28 melanoma): > 100 µM
- TGI (OVCAR-4 ovarian): > 100 µM
- TGI (RXF 393 renal): > 100 µM
- TGI (MDA-MB-231 breast): > 100 µM
- TGI (ACHN renal): > 100 µM
- TGI (SK-MEL-2 melanoma): > 100 µM
- TGI (HOP-92 NSCLC): > 100 µM
- TGI (COLO 205 colon): > 100 µM
- TGI (NCI-H460 lung): > 100 µM
- TGI (NCI-H522 lung): 67.2 µM
- TGI (SW-620 colon): > 100 µM
- TGI (UO-31 renal): > 100 µM
- TGI (SN12C renal): > 100 µM
- TGI (HT29 colon): > 100 µM
- TGI (IGROV1 ovarian): > 100 µM
- TGI (A549 NSCLC): > 100 µM
- TGI (BT-549 breast): > 100 µM
- TGI (M14 melanoma): > 100 µM
- TGI (SNB-75 CNS): > 100 µM
- TGI (SF-539 CNS): > 100 µM
- TGI (CCRF-CEM leukemia): > 100 µM
- TGI (SR leukemia): > 100 µM
- TGI (CAKI-1 renal): > 100 µM
- TGI (EKVX NSCLC): > 100 µM
- TGI (KM12 colon): > 100 µM
- TGI (RPMI-8226 leukemia): > 100 µM
- TGI (MDA-MB-435): > 100 µM
- TGI (HCT-15 colon): > 100 µM
- TGI (SK-OV-3 ovarian): > 100 µM
- TGI (DU-145 prostate): > 100 µM
- TGI (TK-10 renal): > 100 µM
- TGI (OVCAR-5 ovarian): > 100 µM
- TGI (OVCAR-8 ovarian): > 100 µM
- TGI (MOLT-4 leukemia): > 100 µM
- TGI (MCF7 breast): > 100 µM
- TGI (UACC-62 melanoma): > 100 µM
- TGI (OVCAR-3 ovarian): > 100 µM
- TGI (HCT-116 colon): > 100 µM
- TGI (HCC-2998 colon): > 100 µM
- TGI (HOP-62 NSCLC): > 100 µM
- TGI (LOX IMVI melanoma): > 100 µM
- TGI (SF-295 CNS): > 100 µM
- TGI (T-47D breast): > 100 µM
- TGI (NCI-H226 lung): > 100 µM
- TGI (SF-268 CNS): > 100 µM
- TGI (PC-3 prostate): 90.9 µM
- TGI (UACC-257 melanoma): > 100 µM
- TGI (NCI/ADR-RES ovarian): > 100 µM
- TGI (HL-60(TB) leukemia): > 100 µM
- TGI (U251 CNS): > 100 µM

SMILES: Nc1nc2ncc(CNc3ccc(C(=O)NC(CCC(=O)O)C(=O)O)cc3)nc2c(=O)[nH]1 (stereo not drawn)
- TGI (786-0 renal): > 100 µM
- TGI (SK-MEL-5 melanoma): > 100 µM
- TGI (SNB-19 CNS): > 100 µM
- TGI (NCI-H23 lung): > 100 µM
- TGI (K-562 leukemia): > 100 µM
- TGI (SK-MEL-28 melanoma): > 100 µM
- TGI (OVCAR-4 ovarian): > 100 µM
- TGI (RXF 393 renal): > 100 µM
- TGI (ACHN renal): > 100 µM
- TGI (SK-MEL-2 melanoma): > 100 µM
- TGI (HS 578T breast): > 100 µM
- TGI (NCI-H460 lung): > 100 µM
- TGI (NCI-H522 lung): > 100 µM
- TGI (SW-620 colon): > 100 µM
- TGI (UO-31 renal): > 100 µM
- TGI (SN12C renal): > 100 µM
- TGI (HT29 colon): > 100 µM
- TGI (IGROV1 ovarian): > 100 µM
- TGI (A549 NSCLC): > 100 µM
- TGI (BT-549 breast): > 100 µM
- TGI (M14 melanoma): > 100 µM
- TGI (SNB-75 CNS): > 100 µM
- TGI (SF-539 CNS): > 100 µM
- TGI (CCRF-CEM leukemia): > 100 µM
- TGI (SR leukemia): > 100 µM
- TGI (EKVX NSCLC): > 100 µM
- TGI (KM12 colon): > 100 µM
- TGI (RPMI-8226 leukemia): > 100 µM
- TGI (MDA-MB-435): > 100 µM
- TGI (HCT-15 colon): > 100 µM
- TGI (TK-10 renal): > 100 µM
- TGI (OVCAR-5 ovarian): > 100 µM
- TGI (OVCAR-8 ovarian): > 100 µM
- TGI (MOLT-4 leukemia): > 100 µM
- TGI (MCF7 breast): > 100 µM
- TGI (UACC-62 melanoma): > 100 µM
- TGI (OVCAR-3 ovarian): > 100 µM
- TGI (HCC-2998 colon): > 100 µM
- TGI (HOP-62 NSCLC): > 100 µM
- TGI (LOX IMVI melanoma): > 100 µM
- TGI (SF-295 CNS): > 100 µM
- TGI (NCI-H226 lung): > 100 µM
- TGI (SF-268 CNS): > 100 µM
- TGI (MALME-3M melanoma): > 100 µM
- TGI (PC-3 prostate): > 100 µM
- TGI (UACC-257 melanoma): > 100 µM
- TGI (NCI/ADR-RES ovarian): > 100 µM
- TGI (U251 CNS): > 100 µM
